Reference: ChEMBL document CHEMBL5131391, “One-pot three-component synthesis of novel pyrazolo[3,4-b]pyridines as potent antileukemic agents” (Eur J Med Chem, 2022)

What was measured:
Assay type in all cases: functional
MCF7 = assay: Antiproliferative activity against human MCF7 cells assessed as growth inhibition at 10 uM measured after 48 hrs by NCI protocol based SRB assay relative to control; conditions: read-out: GI
HCT-116 = assay: Antiproliferative activity against human HCT-116 cells assessed as growth inhibition at 10 uM measured after 48 hrs by NCI protocol based SRB assay relative to control; conditions: read-out: GI
HOP-62 = assay: Antiproliferative activity against human HOP-62 cells assessed as growth inhibition at 10 uM measured after 48 hrs by NCI protocol based SRB assay relative to control; conditions: read-out: GI
SN12C = assay: Antiproliferative activity against human SN12C cells assessed as growth inhibition at 10 uM measured after 48 hrs by NCI protocol based SRB assay relative to control; conditions: read-out: GI
CAKI-1 = assay: Antiproliferative activity against human CAKI-1 cells assessed as growth inhibition at 10 uM measured after 48 hrs by NCI protocol based SRB assay relative to control; conditions: read-out: GI
ACHN = assay: Antiproliferative activity against human ACHN cells assessed as growth inhibition at 10 uM measured after 48 hrs by NCI protocol based SRB assay relative to control; conditions: read-out: GI
SF-539 = assay: Antiproliferative activity against human SF-539 cells assessed as growth inhibition at 10 uM measured after 48 hrs by NCI protocol based SRB assay relative to control; conditions: read-out: GI
SK-MEL-28 = assay: Antiproliferative activity against human SK-MEL-28 cells assessed as growth inhibition at 10 uM measured after 48 hrs by NCI protocol based SRB assay relative to control; conditions: read-out: GI
MDA-MB-435 = assay: Antiproliferative activity against human MDA-MB-435 cells assessed as growth inhibition at 10 uM measured after 48 hrs by NCI protocol based SRB assay relative to control; conditions: read-out: GI
786-0 = assay: Antiproliferative activity against human 786-0 cells assessed as growth inhibition at 10 uM measured after 48 hrs by NCI protocol based SRB assay relative to control; conditions: read-out: GI
NCI-H226 = assay: Antiproliferative activity against human NCI-H226 cells assessed as growth inhibition at 10 uM measured after 48 hrs by NCI protocol based SRB assay relative to control; conditions: read-out: GI
UO-31 = assay: Antiproliferative activity against human UO-31 cells assessed as growth inhibition at 10 uM measured after 48 hrs by NCI protocol based SRB assay relative to control; conditions: read-out: GI
UACC-62 = assay: Antiproliferative activity against human UACC-62 cells assessed as growth inhibition at 10 uM measured after 48 hrs by NCI protocol based SRB assay relative to control; conditions: read-out: GI
Malme-3M = assay: Antiproliferative activity against human Malme-3M cells assessed as growth inhibition at 10 uM measured after 48 hrs by NCI protocol based SRB assay relative to control; conditions: read-out: GI
NCI-H322M = assay: Antiproliferative activity against human NCI-H322M cells assessed as growth inhibition at 10 uM measured after 48 hrs by NCI protocol based SRB assay relative to control; conditions: read-out: GI
A498 = assay: Antiproliferative activity against human A498 cells assessed as growth inhibition at 10 uM measured after 48 hrs by NCI protocol based SRB assay relative to control; conditions: read-out: GI
T47D = assay: Antiproliferative activity against human T47D cells assessed as growth inhibition at 10 uM measured after 48 hrs by NCI protocol based SRB assay relative to control; conditions: read-out: GI
CCRF-CEM [1] = assay: Antiproliferative activity against human CEM cells assessed as reduction in cell viability incubated for 72 hrs by resazurin dye based assay
BT-549 = assay: Antiproliferative activity against human BT-549 cells assessed as growth inhibition at 10 uM measured after 48 hrs by NCI protocol based SRB assay relative to control; conditions: read-out: GI
RXF 393 = assay: Antiproliferative activity against human RXF 393 cells assessed as growth inhibition at 10 uM measured after 48 hrs by NCI protocol based SRB assay relative to control; conditions: read-out: GI
NCI-H23 = assay: Antiproliferative activity against human NCI-H23 cells assessed as growth inhibition at 10 uM measured after 48 hrs by NCI protocol based SRB assay relative to control; conditions: read-out: GI
CCRF-CEM [2] = assay: Antiproliferative activity against human CCRF-CEM cells assessed as growth inhibition at 10 uM measured after 48 hrs by NCI protocol based SRB assay relative to control; conditions: read-out: GI
RPMI-8226 = assay: Antiproliferative activity against human RPMI-8226 cells assessed as growth inhibition at 10 uM measured after 48 hrs by NCI protocol based SRB assay relative to control; conditions: read-out: GI
DU-145 = assay: Antiproliferative activity against human DU-145 cells assessed as growth inhibition at 10 uM measured after 48 hrs by NCI protocol based SRB assay relative to control; conditions: read-out: GI
NCI/ADR-RES = assay: Antiproliferative activity against human NCl/ADR-RES cells assessed as growth inhibition at 10 uM measured after 48 hrs by NCI protocol based SRB assay relative to control; conditions: read-out: GI
SF-295 = assay: Antiproliferative activity against human SF-295 cells assessed as growth inhibition at 10 uM measured after 48 hrs by NCI protocol based SRB assay relative to control; conditions: read-out: GI
SNB-19 = assay: Antiproliferative activity against human SNB-19 cells assessed as growth inhibition at 10 uM measured after 48 hrs by NCI protocol based SRB assay relative to control; conditions: read-out: GI
NCI-H522 = assay: Antiproliferative activity against human NCI-H522 cells assessed as growth inhibition at 10 uM measured after 48 hrs by NCI protocol based SRB assay relative to control; conditions: read-out: GI
PC-3 = assay: Antiproliferative activity against human PC-3 cells assessed as growth inhibition at 10 uM measured after 48 hrs by NCI protocol based SRB assay relative to control; conditions: read-out: GI
IGROV-1 = assay: Antiproliferative activity against human IGROV-1 cells assessed as growth inhibition at 10 uM measured after 48 hrs by NCI protocol based SRB assay relative to control; conditions: read-out: GI
M14 = assay: Antiproliferative activity against human M14 cells assessed as growth inhibition at 10 uM measured after 48 hrs by NCI protocol based SRB assay relative to control; conditions: read-out: GI
SF-268 = assay: Antiproliferative activity against human SF-268 cells assessed as growth inhibition at 10 uM measured after 48 hrs by NCI protocol based SRB assay relative to control; conditions: read-out: GI
UACC-257 = assay: Antiproliferative activity against human UACC-257 cells assessed as growth inhibition at 10 uM measured after 48 hrs by NCI protocol based SRB assay relative to control; conditions: read-out: GI
SW-620 = assay: Antiproliferative activity against human SW-620 cells assessed as growth inhibition at 10 uM measured after 48 hrs by NCI protocol based SRB assay relative to control; conditions: read-out: GI
COLO 205 = assay: Antiproliferative activity against human COLO 205 cells assessed as growth inhibition at 10 uM measured after 48 hrs by NCI protocol based SRB assay relative to control; conditions: read-out: GI
MV4-11 = assay: Antiproliferative activity against human MV4-11 cells assessed as reduction in cell viability incubated for 72 hrs by resazurin dye based assay; conditions: MV4-11, 72 h
K562 = assay: Antiproliferative activity against human K562 cells assessed as growth inhibition at 10 uM measured after 48 hrs by NCI protocol based SRB assay relative to control; conditions: read-out: GI

| Compound | inhibition of growth at 10 µM (MCF7) | inhibition of growth at 10 µM (HCT-116) | inhibition of growth at 10 µM (HOP-62) | inhibition of growth at 10 µM (SN12C) | inhibition of growth at 10 µM (CAKI-1) | inhibition of growth at 10 µM (ACHN) | inhibition of growth at 10 µM (SF-539) | inhibition of growth at 10 µM (SK-MEL-28) | inhibition of growth at 10 µM (MDA-MB-435) | inhibition of growth at 10 µM (786-0) | inhibition of growth at 10 µM (NCI-H226) | inhibition of growth at 10 µM (UO-31) | inhibition of growth at 10 µM (UACC-62) | inhibition of growth at 10 µM (Malme-3M) | inhibition of growth at 10 µM (NCI-H322M) | inhibition of growth at 10 µM (A498) | inhibition of growth at 10 µM (T47D) | IC50 (CCRF-CEM [1]) | inhibition of growth at 10 µM (BT-549) | inhibition of growth at 10 µM (RXF 393) | also measured |
| --- | --- | --- | --- | --- | --- | --- | --- | --- | --- | --- | --- | --- | --- | --- | --- | --- | --- | --- | --- | --- | --- |
| N#Cc1c(-c2ccccc2)nc2c(c(-c3ccccc3)nn2-c2ccccc2)c1-c1ccc(O)cc1 | 86% | 66% | 75% | 39% | 48% | 58% | 77% | 51% | 49% | 97% | 46% | 73% | 39% | 57% | 34% | 101% | 65% | 33.4 µM | 41% | 117% | inhibition of growth at 10 µM (NCI-H23): 56%; inhibition of growth at 10 µM (CCRF-CEM [2]): 78%; inhibition of growth at 10 µM (RPMI-8226): 87%; inhibition of growth at 10 µM (DU-145): 51%; inhibition of growth at 10 µM (NCI/ADR-RES): 30%; inhibition of growth at 10 µM (SF-295): 143%; inhibition of growth at 10 µM (SNB-19): 61%; inhibition of growth at 10 µM (NCI-H522): 99%; inhibition of growth at 10 µM (PC-3): 96%; inhibition of growth at 10 µM (IGROV-1): 29%; inhibition of growth at 10 µM (M14): 44%; inhibition of growth at 10 µM (SF-268): 45%; inhibition of growth at 10 µM (UACC-257): 29%; inhibition of growth at 10 µM (SW-620): 84%; inhibition of growth at 10 µM (COLO 205): 59%; IC50 (MV4-11): 26.1 µM |
| N#Cc1c(-c2ccc(Cl)cc2)nc2c(c(-c3ccccc3)nn2-c2ccccc2)c1-c1ccc(O)cc1 | 81% | 86% | 51% | 118% | 60% | 44% | 89% | 44% | 52% | 83% | 35% | 70% | 47% | 39% | 30% | 21% | 45% | 43.1 µM | 38% | 127% | inhibition of growth at 10 µM (K562): 92%; inhibition of growth at 10 µM (NCI-H23): 52%; inhibition of growth at 10 µM (CCRF-CEM [2]): 73%; inhibition of growth at 10 µM (RPMI-8226): 83%; inhibition of growth at 10 µM (DU-145): 50%; inhibition of growth at 10 µM (NCI/ADR-RES): 43%; inhibition of growth at 10 µM (SF-295): 99%; inhibition of growth at 10 µM (SNB-19): 35%; inhibition of growth at 10 µM (NCI-H522): 45%; inhibition of growth at 10 µM (PC-3): 89%; inhibition of growth at 10 µM (IGROV-1): 31%; inhibition of growth at 10 µM (M14): 62%; inhibition of growth at 10 µM (SF-268): 54%; inhibition of growth at 10 µM (UACC-257): 15%; inhibition of growth at 10 µM (SW-620): 46%; inhibition of growth at 10 µM (COLO 205): 48%; IC50 (MV4-11): 25.1 µM |
